Experimental data as given in paper PMC11668715 (AMB Express, 2024).

Tests used:
MRSA ATCC 43,300 [1] = experiment: Checkerboard dilution assay; format: cell-based, S. aureus; parameters: MICalone / MICcombined: unit not given beside the values; details: for MICalone: drug alone, checkerboard; for MICalone / MICcombined: MRSA ATCC 43,300; for Fold change: MIC combined vs alone
MRSA ATCC 43,300 [2] = experiment: Time-killing assay of the synergistical combinations; format: cell-based, S. aureus; details: 1/4×MIC of PVB and 1/4×MIC of the antibiotic
[3] = test system: MRSA and S. epidermidis persister cells; experiment: Persister cells killing assay; format: cell-based, S. aureus and S. epidermidis; details: 64 µg/mL
[4] = group 13: PVB combined with CEZ
[5] = group 17: PVB combined with AMK
[6] = group 15: PVB combined with OXA
[7] = group 18: PVB combined with GEN
[8] = group 14: PVB combined with CEF
[9] = group 19: PVB combined with KANA
[10] = group 11: PVB combined with CAZ
[11] = group 20: PVB combined with TOB
[12] = group 12: PVB combined with AMP
[13] = group 16: PVB combined with CRO
[14] = group 21: PVB combined with SPC

Molecule: Cc1nnc(SCC2=C(C(=O)O)N3C(=O)[C@@H](NC(=O)Cn4cnnn4)[C@H]3SC2)s1 [CEZ, cefazolin]
- MICalone (MRSA ATCC 43,300 [1]): 16
- FICI (MRSA ATCC 43,300 [1]; group 13: PVB + CEZ): 0.5625
- Fold change (MRSA ATCC 43,300 [1]; [4]): 0.5
- MICcombined (MRSA ATCC 43,300 [1]; [4]): 8

Molecule: NCC[C@H](O)C(=O)N[C@@H]1C[C@H](N)[C@@H](O[C@H]2O[C@H](CN)[C@@H](O)[C@H](O)[C@H]2O)[C@H](O)[C@H]1O[C@H]1O[C@H](CO)[C@@H](O)[C@H](N)[C@H]1O [AMK, amikacin]
- MICalone (MRSA ATCC 43,300 [1]): 64
- FICI (MRSA ATCC 43,300 [1]; group 17: PVB + AMK): > 2
- Outcome (MRSA ATCC 43,300 [1]; group 17: PVB + AMK): indifference/antagonism
- Fold change (MRSA ATCC 43,300 [1]; [5]): > 1
- MICcombined (MRSA ATCC 43,300 [1]; [5]): > 64

Molecule: CN(C)[C@@H]1C(O)=C(C(N)=O)C(=O)[C@@]2(O)C(O)=C3C(=O)c4c(O)cccc4[C@@](C)(O)[C@H]3C[C@@H]12 [TET, tetracycline]
- MICalone (MRSA ATCC 43,300 [1]): 2
- FICI (MRSA ATCC 43,300 [1]; group 1: PVB + TET): 3
- Fold change (MRSA ATCC 43,300 [1]; group 1: PVB combined with TET): 1
- MICcombined (MRSA ATCC 43,300 [1]; group 1: PVB combined with TET): 2

Molecule: CCCCCCCCCC(=O)N[C@@H](Cc1c[nH]c2ccccc12)C(=O)N[C@H](CC(N)=O)C(=O)N[C@@H](CC(=O)O)C(=O)N[C@@H]1C(=O)NCC(=O)N[C@@H](CCCN)C(=O)N[C@@H](CC(=O)O)C(=O)N[C@H](C)C(=O)N[C@@H](CC(=O)O)C(=O)NCC(=O)N[C@H](CO)C(=O)N[C@@H]([C@H](C)CC(=O)O)C(=O)N[C@@H](CC(=O)c2ccccc2N)C(=O)O[C@@H]1C [DAP, daptomycin]
- MICalone (MRSA ATCC 43,300 [1]): 0.25
- FICI (MRSA ATCC 43,300 [1]; group 6: PVB + DAP): 1
- Fold change (MRSA ATCC 43,300 [1]; group 6: PVB combined with DAP): 0.5
- MICcombined (MRSA ATCC 43,300 [1]; group 6: PVB combined with DAP): 0.125

Molecule: C[C@H]1c2cccc(O)c2C(=O)C2=C(O)[C@]3(O)C(=O)C(C(N)=O)=C(O)[C@@H](N(C)C)[C@@H]3[C@@H](O)[C@@H]21 [DOX, doxycycline]
- MICalone (MRSA ATCC 43,300 [1]): 0.25
- FICI (MRSA ATCC 43,300 [1]; group 2: PVB + DOX): 2
- Fold change (MRSA ATCC 43,300 [1]; group 2: PVB combined with DOX): 1
- MICcombined (MRSA ATCC 43,300 [1]; group 2: PVB combined with DOX): 0.25

Molecule: Cc1onc(-c2ccccc2)c1C(=O)N[C@@H]1C(=O)N2[C@@H]1SC(C)(C)[C@@H]2C(=O)O [OXA, oxacillin]
- bactericidal activity of combination with PVB (time-killing) (MRSA ATCC 43,300 [2]): synergistical bactericidal activity
- MICalone (MRSA ATCC 43,300 [1]): 16
- FICI (MRSA ATCC 43,300 [1]; group 15: PVB + OXA): 0.25
- Fold change (MRSA ATCC 43,300 [1]; [6]): 0.125
- MICcombined (MRSA ATCC 43,300 [1]; [6]): 2

Molecule: gentamycin
- MICalone (MRSA ATCC 43,300 [1]): 16
- FICI (MRSA ATCC 43,300 [1]; group 18: PVB + GEN): 2
- Outcome (MRSA ATCC 43,300 [1]; group 18: PVB + GEN): indifference (an indifference effect was defined as 1 < FICI ≤ 4)
- Fold change (MRSA ATCC 43,300 [1]; [7]): 1
- MICcombined (MRSA ATCC 43,300 [1]; [7]): 16

Molecule: CC(=O)NC[C@H]1CN(c2ccc(N3CCOCC3)c(F)c2)C(=O)O1 [LZD, linezolid]
- MICalone (MRSA ATCC 43,300 [1]): 2
- FICI (MRSA ATCC 43,300 [1]; group 8: PVB + LZD): 2
- Fold change (MRSA ATCC 43,300 [1]; group 8: PVB combined with LZD): 1
- MICcombined (MRSA ATCC 43,300 [1]; group 8: PVB combined with LZD): 2

Molecule: CO/N=C(\C(=O)N[C@@H]1C(=O)N2C(C(=O)O)=C(COC(C)=O)CS[C@H]12)c1csc(N)n1 [CEF, cefotaxime]
- bactericidal activity of combination with PVB (time-killing) (MRSA ATCC 43,300 [2]): synergistical bactericidal activity
- MICalone (MRSA ATCC 43,300 [1]): 2
- Fold change (MRSA ATCC 43,300 [1]; [8]): 0.25
- MICcombined (MRSA ATCC 43,300 [1]; [8]): 0.5

Molecule: C[C@@H]1O[C@@H]1P(=O)(O)O [FOS, fosfomycin]
- MICalone (MRSA ATCC 43,300 [1]): 32
- FICI (MRSA ATCC 43,300 [1]; group 7: PVB + FOS): 2
- Fold change (MRSA ATCC 43,300 [1]; group 7: PVB combined with FOS): 1
- MICcombined (MRSA ATCC 43,300 [1]; group 7: PVB combined with FOS): 32

Molecule: NC[C@H]1O[C@H](O[C@H]2[C@H](O)[C@@H](O[C@H]3O[C@H](CO)[C@@H](O)[C@H](N)[C@H]3O)[C@H](N)C[C@@H]2N)[C@H](O)[C@@H](O)[C@@H]1O [KANA, kanamycin]
- MICalone (MRSA ATCC 43,300 [1]): 256
- FICI (MRSA ATCC 43,300 [1]; group 19: PVB + KANA): 4.5
- Outcome (MRSA ATCC 43,300 [1]; group 19: PVB + KANA): antagonism (an antagonism effect was defined as FICI > 4)
- Fold change (MRSA ATCC 43,300 [1]; [9]): 4
- MICcombined (MRSA ATCC 43,300 [1]; [9]): 1024

Molecule: CC[C@H]1OC(=O)[C@H](C)[C@@H](O[C@H]2C[C@@](C)(OC)[C@@H](O)[C@H](C)O2)[C@H](C)[C@@H](O[C@@H]2O[C@H](C)C[C@H](N(C)C)[C@H]2O)[C@](C)(O)C[C@@H](C)CN(C)[C@H](C)[C@@H](O)[C@]1(C)O [AZI, azithromycin]
- MICalone (MRSA ATCC 43,300 [1]): > 256
- FICI (MRSA ATCC 43,300 [1]; group 4: PVB + AZI): 2
- Fold change (MRSA ATCC 43,300 [1]; group 4: PVB combined with AZI): 1
- MICcombined (MRSA ATCC 43,300 [1]; group 4: PVB combined with AZI): > 256

Molecule: CC[C@H]1OC(=O)[C@H](C)[C@@H](O[C@H]2C[C@@](C)(OC)[C@@H](O)[C@H](C)O2)[C@H](C)[C@@H](O[C@@H]2O[C@H](C)C[C@H](N(C)C)[C@H]2O)[C@](C)(O)C[C@@H](C)C(=O)[C@H](C)[C@@H](O)[C@]1(C)O [E, erythromycin]
- FICI (MRSA ATCC 43,300 [1]; group 3: PVB + E): 2

Molecule: CC(C)(O/N=C(\C(=O)N[C@@H]1C(=O)N2C(C(=O)[O-])=C(C[n+]3ccccc3)CS[C@H]12)c1csc(N)n1)C(=O)O [CAZ, ceftazidime]
- MICalone (MRSA ATCC 43,300 [1]): 32
- FICI (MRSA ATCC 43,300 [1]; group 11: PVB + CAZ): 0.75
- Fold change (MRSA ATCC 43,300 [1]; [10]): 0.25
- MICcombined (MRSA ATCC 43,300 [1]; [10]): 8

Molecule: NC[C@H]1O[C@H](O[C@H]2[C@H](O)[C@@H](O[C@H]3O[C@H](CO)[C@@H](O)[C@H](N)[C@H]3O)[C@H](N)C[C@@H]2N)[C@H](N)C[C@@H]1O [TOB, tobramycin]
- MICalone (MRSA ATCC 43,300 [1]): 64
- FICI (MRSA ATCC 43,300 [1]; group 20: PVB + TOB): 5
- Fold change (MRSA ATCC 43,300 [1]; [11]): 4
- MICcombined (MRSA ATCC 43,300 [1]; [11]): 256

Molecule: CC1(C)S[C@@H]2[C@H](NC(=O)[C@H](N)c3ccccc3)C(=O)N2[C@H]1C(=O)O [AMP, ampicillin]
- bactericidal activity of combination with PVB (time-killing) (MRSA ATCC 43,300 [2]): synergistical bactericidal activity
- MICalone (MRSA ATCC 43,300 [1]): 16
- FICI (MRSA ATCC 43,300 [1]; group 12: PVB + AMP): 0.5
- Fold change (MRSA ATCC 43,300 [1]; [12]): 0.25
- MICcombined (MRSA ATCC 43,300 [1]; [12]): 4

Molecule: CO/N=C(\C(=O)N[C@@H]1C(=O)N2C(C(=O)O)=C(CSc3nc(=O)c(=O)[nH]n3C)CS[C@H]12)c1csc(N)n1 [CRO, ceftriaxone]
- MICalone (MRSA ATCC 43,300 [1]): 32
- FICI (MRSA ATCC 43,300 [1]; group 16: PVB + CRO): 0.5625
- Fold change (MRSA ATCC 43,300 [1]; [13]): 0.0625
- MICcombined (MRSA ATCC 43,300 [1]; [13]): 2

Molecule: CN[C@@H]1[C@H](O)[C@H](NC)[C@H]2O[C@@]3(O)C(=O)C[C@@H](C)O[C@H]3O[C@@H]2[C@H]1O [SPC, spectinomycin]
- MICalone (MRSA ATCC 43,300 [1]): 128
- FICI (MRSA ATCC 43,300 [1]; group 21: PVB + SPC): 2
- Fold change (MRSA ATCC 43,300 [1]; [14]): 1
- MICcombined (MRSA ATCC 43,300 [1]; [14]): 128

Molecule: penicillin
- FICI (MRSA ATCC 43,300 [1]; group 10: PVB + P): 1.5
- Outcome (MRSA ATCC 43,300 [1]; group 10: PVB + P): indifference (an indifference effect was defined as 1 < FICI ≤ 4)

Molecule: CN[C@H](CC(C)C)C(=O)N[C@H]1C(=O)N[C@@H](CC(N)=O)C(=O)N[C@H]2C(=O)N[C@H]3C(=O)N[C@H](C(=O)N[C@H](C(=O)O)c4cc(O)cc(O)c4-c4cc3ccc4O)[C@H](O)c3ccc(c(Cl)c3)Oc3cc2cc(c3O[C@@H]2O[C@H](CO)[C@@H](O)[C@H](O)[C@H]2O[C@H]2C[C@](C)(N)[C@H](O)[C@H](C)O2)Oc2ccc(cc2Cl)[C@H]1O [VAN, vancomycin]
- MICalone (MRSA ATCC 43,300 [1]): 1
- FICI (MRSA ATCC 43,300 [1]; group 9: PVB + VAN): 2
- Fold change (MRSA ATCC 43,300 [1]; group 9: PVB combined with VAN): 1
- MICcombined (MRSA ATCC 43,300 [1]; group 9: PVB combined with VAN): 1
- persister cells killing [3]: resistant

Molecule: C[C@H]1COc2c(N3CCN(C)CC3)c(F)cc3c(=O)c(C(=O)O)cn1c23 [LEV, levofloxacin]
- MICalone (MRSA ATCC 43,300 [1]): 0.125
- FICI (MRSA ATCC 43,300 [1]; group 5: PVB + LEV): 2
- Fold change (MRSA ATCC 43,300 [1]; group 5: PVB combined with LEV): 1
- MICcombined (MRSA ATCC 43,300 [1]; group 5: PVB combined with LEV): 0.125
